Experiments:
[1] = tested on: Staphylococcus aureus (S. aureus) 11540 strain; experiment: Standard microdilution MIC assay, S. aureus; assay type: cell-based
How it was run: (§1)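 Broth microdilution per CLSI M7-A8 guidelines, with reference-strain quality control run in the same design; MIC determined per strain. Activity scored +/− against a 16 micrograms/mL cutoff.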

[2] = tested on: Escherichia coli strain ATCC25922; experiment: Standard microdilution MIC assay, E. coli; assay type: cell-based
How it was run: as §1

Row | SMILES | MIC [1] [µg/mL] | MIC [2] [µg/mL]
1 | C=C[C@@H](CCNC(C)=N)NCc1ccc(-n2cc3cc(-c4cc(CCC[C@@H](N)C(F)F)cc(Cl)c4F)[nH]c3nc2=O)cc1 [Compound 140] | ≤ 16 | ≤ 16
2 | CC(=N)NCC[C@@H]1CCC[C@@H](c2ccc(-n3cc4cc(-c5cc(CCC[C@H](N)C(F)F)cc(Cl)c5F)[nH]c4nc3=O)cc2)N1 [Compound 141] | ≤ 16 | ≤ 16
3 | C=C[C@@H](CCNC(C)=N)NCc1ccc(-n2cc3cc(-c4cc(CCC[C@H](N)C(F)F)cc(Cl)c4F)[nH]c3nc2=O)cc1 [Compound 142] | ≤ 16 | ≤ 16
4 | CC(=N)NCCCNC1(c2ccc(-n3cc4cc(-c5cc(CCC[C@@H](N)C6CC6)cc(Cl)c5F)[nH]c4nc3=O)cc2)CC1 [Compound 143] | ≤ 16 | ≤ 16
5 | C=C[C@@H](N)CCCc1cc(Cl)c(F)c(-c2cc3cn(-c4ccc(C5(NCCCNC(C)=N)CC5)cc4)c(=O)nc3[nH]2)c1 [Compound 144] | ≤ 16 | ≤ 16
6 | CC(=N)NCCCNC1(c2ccc(-n3cc4cc(-c5cc(CCC[C@H](C)N)cc(Cl)c5F)[nH]c4nc3=O)cc2)CC1 [Compound 145] | ≤ 16 | ≤ 16
7 | C=C[C@@H](CCNC(C)=N)NCc1ccc(-n2cc3cc(-c4cc(CCCC5(N)CC5)cc(Cl)c4F)[nH]c3nc2=O)cc1 [Compound 146] | ≤ 16 | ≤ 16
8 | CC(=N)NCC[C@@H]1CCC[C@@H](c2ccc(-n3cc4cc(-c5cc(CCCC6(N)CC6)cc(Cl)c5F)[nH]c4nc3=O)cc2)N1 [Compound 147] | ≤ 16 | ≤ 16
9 | CC(=N)NCCCN[C@@H](C)c1ccc(-n2cc3cc(-c4cc(CCCC5(N)CC5)cc(Cl)c4F)[nH]c3nc2=O)cc1F [Compound 148] | ≤ 16 | ≤ 16
10 | C=C[C@@H](N)CCCc1cc(Cl)c(F)c(-c2cc3cn(-c4ccc([C@H](C)N[C@@H](C=C)CCNC(C)=N)cc4)c(=O)nc3[nH]2)c1 [Compound 149] | ≤ 16 | ≤ 16
11 | C=C[C@@H](CCNC(C)=N)N[C@@H](C)c1ccc(-n2cc3cc(-c4cc(CCC[C@@H](N)CF)cc(Cl)c4F)[nH]c3nc2=O)cc1 [Compound 150] | ≤ 16 | ≤ 16
12 | C=C[C@@H](CCNC(C)=N)N[C@@H](C)c1ccc(-n2cc3cc(-c4cc(CCC[C@@H](N)CO)cc(Cl)c4F)[nH]c3nc2=O)cc1 [Compound 151] | ≤ 16 | ≤ 16
13 | CC(=N)NCC[C@H](CO)NCc1ccc(-n2cc3cc(-c4cc(CCCC5(N)CC5)cc(Cl)c4F)[nH]c3nc2=O)cc1 [Compound 153] | ≤ 16 | ≤ 16
14 | CC(=N)NCC[C@@H]1CCC[C@@H](c2ccc(-n3cc4cc(-c5cc(CCC[C@@H](N)CC#N)cc(Cl)c5F)[nH]c4nc3=O)cc2)N1 [Compound 154] | ≤ 16 | ≤ 16
15 | C=C[C@@H](CCNC(C)=N)NCc1ccc(-n2cc3cc(-c4cc(CCC[C@@H](N)CC#N)cc(Cl)c4F)[nH]c3nc2=O)cc1 [Compound 155] | ≤ 16 | ≤ 16
16 | CC(=N)NCC[C@@H]1CCC[C@@H](c2ccc(-n3cc4cc(-c5cc(CCC[C@@H](N)CC(N)=O)cc(Cl)c5F)[nH]c4nc3=O)cc2)N1 [Compound 156] | ≤ 16 | ≤ 16
17 | C=C[C@@H](CCNC(C)=N)NCc1ccc(-n2cc3cc(-c4cc(CCC[C@@H](N)CC(N)=O)cc(Cl)c4F)[nH]c3nc2=O)cc1 [Compound 157] | ≤ 16 | ≤ 16
18 | C=C[C@@H](N)CCCc1cc(Cl)c(F)c(-c2cc3cn(-c4ccc([C@H](CO)NCCCNC(C)=N)cc4)c(=O)nc3[nH]2)c1 [Compound 158] | ≤ 16 | ≤ 16
19 | CC(=N)NCCCN[C@H](c1ccc(-n2cc3cc(-c4cc(CCC[C@H](C)N)cc(Cl)c4F)[nH]c3nc2=O)cc1)C(F)F [Compound 159] | ≤ 16 | ≤ 16
20 | COC[C@H](N)CCCc1cc(Cl)c(F)c(-c2cc3cn(-c4ccc([C@@H]5CCC[C@@H](CCNC(C)=N)N5)cc4)c(=O)nc3[nH]2)c1 [Compound 160] | ≤ 16 | ≤ 16
21 | C=C[C@H](NCCCNC(C)=N)c1ccc(-n2cc3cc(-c4cc(CCC[C@H](C)N)cc(Cl)c4F)[nH]c3nc2=O)cc1 [Compound 161] | ≤ 16 | ≤ 16
22 | CC(=N)NCC[C@H](CO)N[C@@H](C)c1ccc(-n2cc3cc(-c4cc(CCC[C@@H](N)CO)cc(Cl)c4F)[nH]c3nc2=O)cc1F [Compound 163] | ≤ 16 | ≤ 16
23 | C=C[C@@H](CCNC(C)=N)N[C@@H](C)c1ccc(-n2cc3cc(-c4cc(CCC[C@@H](N)C5CC5)cc(Cl)c4F)[nH]c3nc2=O)cc1 [Compound 164] | ≤ 16 | ≤ 16
24 | CC(=N)NCC[C@H](CNc1ncc[nH]1)N[C@@H](C)c1ccc(-n2cc3cc(-c4cc(CCC[C@H](C)N)cc(Cl)c4F)[nH]c3nc2=O)cc1 [Compound 165] | ≤ 16 | ≤ 16
25 | C=C[C@@H](N)CCCc1cc(Cl)c(F)c(-c2cc3cn(-c4ccc([C@@H]5CCC[C@@H](CCNC(C)=N)N5)c(F)c4)c(=O)nc3[nH]2)c1 [Compound 166] | ≤ 16 | ≤ 16

Row | SMILES | MIC [1] [µg/mL] | MIC [2] [µg/mL]
26 | CC(=N)NCC[C@@H]1CCC[C@@H](c2ccc(-n3cc4cc(-c5cc(CCC[C@@H](N)C6CC6)cc(Cl)c5F)[nH]c4nc3=O)cc2F)N1 [Compound 167] | ≤ 16 | ≤ 16
27 | C=C[C@@H](CCNC(C)=N)N[C@@H](C)c1ccc(-n2cc3cc(-c4cc(CCC[C@@H](N)CO)cc(Cl)c4F)[nH]c3nc2=O)cc1F [Compound 168] | ≤ 16 | ≤ 16
28 | CC(=N)NCC[C@@H]1CCC[C@@H](c2ccc(-n3cc4cc(-c5cc(CCCC6(N)CC6)cc(Cl)c5F)[nH]c4nc3=O)cc2F)N1 [Compound 169] | ≤ 16 | ≤ 16
29 | CC(=N)NCC[C@@H]1CCC[C@@H](c2ccc(-n3cc4cc(-c5cc(CCC[C@@H](N)CF)cc(Cl)c5F)[nH]c4nc3=O)cc2F)N1 [Compound 170] | ≤ 16 | ≤ 16
30 | COC[C@H](N)CCCc1cc(Cl)c(F)c(-c2cc3cn(-c4ccc([C@@H]5CCC[C@@H](CCNC(C)=N)N5)c(F)c4)c(=O)nc3[nH]2)c1 [Compound 171] | ≤ 16 | ≤ 16
31 | CC(=N)NCC[C@@H]1CCC[C@@H](c2ccc(-n3cc4cc(-c5cc(CCC[C@H](C)N)cc(C(F)(F)F)c5)[nH]c4nc3=O)cc2)N1 [Compound 172] | ≤ 16 | ≤ 16
32 | C=C[C@H](N)CCCc1cc(Cl)c(F)c(-c2cc3cn(-c4ccc([C@@H]5CCC[C@@H](CCNC(C)=N)N5)c(F)c4)c(=O)nc3[nH]2)c1 [Compound 173] | ≤ 16 | ≤ 16
33 | C=C[C@H](N)CCCc1cc(Cl)c(F)c(-c2cc3cn(-c4ccc([C@H](C)N[C@@H](CO)CCNC(C)=N)c(F)c4)c(=O)nc3[nH]2)c1 [Compound 174] | ≤ 16 | ≤ 16
34 | CC(=N)NCC[C@@H]1CCC[C@@H](c2ccc(-n3cc4cc(-c5cc(CCC[C@H](C)N)cc(Cl)c5F)[nH]c4nc3=O)cc2Cl)N1 [Compound 175] | ≤ 16 | ≤ 16
35 | CC(=N)NCC[C@@H]1CCC[C@@H](c2ccc(-n3cc4cc(-c5cc(CCC[C@@H](N)CF)cc(Cl)c5F)[nH]c4nc3=O)cc2Cl)N1 [Compound 176] | ≤ 16 | ≤ 16
36 | CC(=N)NCC[C@H](CO)N[C@@H](C)c1ccc(-n2cc3cc(-c4cc(CCC[C@H](C)N)cc(Cl)c4F)[nH]c3nc2=O)cc1F [Compound 177] | ≤ 16 | ≤ 16
37 | CC(=N)NCC[C@H](CO)N[C@@H](C)c1ccc(-n2cc3cc(-c4cc(CCC[C@@H](N)CF)cc(Cl)c4F)[nH]c3nc2=O)cc1F [Compound 178] | ≤ 16 | ≤ 16
38 | C=C[C@H](NCCCNC(C)=N)c1ccc(-n2cc3cc(-c4cc(CCC[C@@H](N)CF)cc(Cl)c4F)[nH]c3nc2=O)cc1 [Compound 179] | ≤ 16 | ≤ 16
39 | C=CCN(CC[C@@H]1CCC[C@@H](c2ccc(-n3cc4cc(-c5cc(CCC[C@H](C)N)cc(Cl)c5F)[nH]c4nc3=O)cc2)N1C)C(C)=N [Compound 180] | ≤ 16 | ≤ 16
40 | C=CCN(CC[C@@H]1CCC[C@@H](c2ccc(-n3cc4cc(-c5cc(CCC[C@@H](N)CF)cc(Cl)c5F)[nH]c4nc3=O)cc2)N1C)C(C)=N [Compound 181] | ≤ 16 | ≤ 16
41 | C=C[C@@H](CCNC(C)=N)N[C@@H](C)c1ccc(-n2cc3cc(-c4cc(CCC[C@H](C)N)cc(Cl)c4F)[nH]c3nc2=O)cc1F [Compound 183] | ≤ 16 | ≤ 16
42 | C=C[C@H](N)CCCc1cc(Cl)c(F)c(-c2cc3cn(-c4ccc([C@H](C)N[C@@H](C=C)CCNC(C)=N)c(F)c4)c(=O)nc3[nH]2)c1 [Compound 184] | ≤ 16 | ≤ 16
43 | C=C[C@H](N)CCCc1cc(Cl)c(F)c(-c2cc3cn(-c4ccc([C@@H]5CCC[C@@H](CCNC(=N)C(Cl)(Cl)Cl)N5)c(F)c4)c(=O)nc3[nH]2)c1 [Compound 185] | ≤ 16 | ≤ 16
44 | C=C[C@@H](CCNC(C)=N)N[C@@H](C)c1ccc(-n2cc3cc(-c4cc(CCC[C@@H](N)CF)cc(Cl)c4F)[nH]c3nc2=O)cc1F [Compound 186] | ≤ 16 | ≤ 16
45 | C=C[C@@H](CCNC(C)=N)NCc1ccc(-n2cc3cc(-c4cc(CCC[C@@H](N)COC)cc(Cl)c4F)[nH]c3nc2=O)cc1 [Compound 187] | ≤ 16 | ≤ 16
46 | COC[C@@H](CCNC(C)=N)NCc1ccc(-n2cc3cc(-c4cc(CCC[C@@H](N)CF)cc(Cl)c4F)[nH]c3nc2=O)cc1 [Compound 188] | ≤ 16 | ≤ 16
47 | COC[C@@H](CCNC(C)=N)NCc1ccc(-n2cc3cc(-c4cc(CCC[C@H](C)N)cc(Cl)c4F)[nH]c3nc2=O)cc1 [Compound 189] | ≤ 16 | ≤ 16
48 | CC(=N)NCC[C@@H]1CCC[C@@H](c2ccc(-n3cc4cc(-c5cc(CCC[C@H](C)N)cc(Cl)c5F)[nH]c4nc3=O)cn2)N1 [Compound 192] | ≤ 16 | ≤ 16
49 | CC(=N)NCC[C@@H]1CCC[C@@H](c2ccc(-n3cc4cc(-c5cc(CCC[C@@H](N)CF)cc(C(F)(F)F)c5F)[nH]c4nc3=O)cc2)N1 [Compound 193] | ≤ 16 | ≤ 16

— patent US11999739B2, “Antimicrobials methods of making and using the same” (BIOVERSYS AG, priority 2016, dated 2024)
